Experimental data reported in patent publication EP0336068A1, “Phenoxyalkoxy-3,4-dihydro-2H-1-benzopyran derivatives” (F. HOFFMANN-LA ROCHE AG, priority 1988, dated 1989).

Test system: Antibiotic-Induced Colitis in Hamsters
Assay: Antibiotic-induced colitis in hamsters (in vivo), survival
Set-up: species or system Syrian hamsters
Conditions: given orally at 20 micromoles per kilogram; colitis induced by 175 mg/kg clindamycin intraperitoneally; first dose about seven hours after injection, then twice a day for four more days; Hazard Ratio >1.0 = therapy prolongs survival versus vehicle
Experimental: Antibiotic-Induced Colitis in Hamsters (In Vivo):
Male Syrian hamsters (LUG), weighing 80 to 120 g, were each given a single dose of 175 mg/kg of clindamycin-phosphate or of clindamycin-hydrochloride intraperitoneally, to induce colitis. Approximately seven hours after injection, the animals wer given the test compound orally or intraperitoneally and the therapy was continued twice a day for a period of four more days. The effect of the therapy was measured by use of the Hazard Ratio, which is the ratio of the mortality of the animals treated with the test compound contained in a vehicle to the mortality of the animals treated with the vehicle containing none of the test compound. The mortality was determined for the test compound-treated groups and for the vehicle-treated groups, respectively, twice daily, and was evaluated by comparing the survival curves of each group. The Kaplan-Meier estimate of the survival curve was calculated for each group and the Mantel-Cox (logrank) test was used to compare the survival curve of each test compound-treated (therapy) group to that of the corresponding vehicle control group.

CCCCCCCCOC(=O)C1CCc2cc(C(C)=O)c(OCCCCCOc3ccc(C(C)=O)c(O)c3CCC)cc2O1 (racemic) [racemic 6-acetyl-7-[5-(4-acetyl-3-hydroxy-2-propylphenoxy)pentyloxy]-3,4-dihydro-2H-1-benzopyran-2-carboxylic acid n-octyl ester]
Hazard Ratio: 2.0
